Like-named read-outs stand apart in the source and are kept apart here.
Legend:
Type in all cases: biochemical
hepsin = molecular target: T1, hepsin (Homo sapiens, UniProt P05981); experiment: Fluorogenic kinetic enzyme inhibitor assay, hepsin
T1 construct: purchased R&D Systems 4776-SE-010

HGFA = molecular target: T2, HGFA (Homo sapiens, UniProt Q04756); experiment: Fluorogenic kinetic enzyme inhibitor assay, HGFA; conditions: read-out: HGFA IC50
T2 construct: purchased R&D Systems 1514-SE-010
T2 sequence (Q04756 408-655 limits assumed): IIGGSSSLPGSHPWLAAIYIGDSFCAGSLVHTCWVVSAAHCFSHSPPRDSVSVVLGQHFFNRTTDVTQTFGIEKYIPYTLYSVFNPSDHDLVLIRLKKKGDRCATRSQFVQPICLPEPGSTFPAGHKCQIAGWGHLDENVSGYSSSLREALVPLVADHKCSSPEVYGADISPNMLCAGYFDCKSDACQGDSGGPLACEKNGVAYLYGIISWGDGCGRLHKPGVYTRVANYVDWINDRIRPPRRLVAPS
T2 sequence (Q04756 373-407 partner limits assumed): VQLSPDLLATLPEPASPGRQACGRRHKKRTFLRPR

matriptase = molecular target: T3, matriptase (Homo sapiens, UniProt Q9Y5Y6); experiment: Fluorogenic kinetic enzyme inhibitor assay, matriptase
T3 construct: purchased R&D Systems 3946-SEB-010
T3 sequence (Q9Y5Y6 615-855 limits assumed): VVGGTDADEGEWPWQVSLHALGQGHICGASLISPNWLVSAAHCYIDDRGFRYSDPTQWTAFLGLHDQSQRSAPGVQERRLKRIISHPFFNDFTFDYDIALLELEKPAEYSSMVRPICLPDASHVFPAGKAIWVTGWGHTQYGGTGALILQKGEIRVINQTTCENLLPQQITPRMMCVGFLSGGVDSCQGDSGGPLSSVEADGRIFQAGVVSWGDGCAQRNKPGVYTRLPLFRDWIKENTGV

TMPRSS2 = TMPRSS2 (Homo sapiens, UniProt O15393); experiment: Fluorogenic kinetic enzyme inhibitor assay, TMPRSS2; parameters: purchased Cusabio Technology CSB-YP023924HU
Sequence of TMPRSS2 (O15393 106-492 limits assumed): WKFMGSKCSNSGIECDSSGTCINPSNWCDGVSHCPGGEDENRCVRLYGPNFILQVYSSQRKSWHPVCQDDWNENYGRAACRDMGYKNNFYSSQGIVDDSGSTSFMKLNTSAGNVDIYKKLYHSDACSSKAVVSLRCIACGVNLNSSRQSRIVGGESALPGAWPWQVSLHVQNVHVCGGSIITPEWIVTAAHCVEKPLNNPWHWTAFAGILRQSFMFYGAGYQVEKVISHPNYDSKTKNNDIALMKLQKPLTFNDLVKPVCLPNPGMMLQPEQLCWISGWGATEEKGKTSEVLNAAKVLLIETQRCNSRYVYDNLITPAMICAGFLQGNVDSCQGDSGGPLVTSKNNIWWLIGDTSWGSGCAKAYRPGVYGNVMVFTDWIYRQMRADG

T1 sequence (P05981 163-417 limits assumed): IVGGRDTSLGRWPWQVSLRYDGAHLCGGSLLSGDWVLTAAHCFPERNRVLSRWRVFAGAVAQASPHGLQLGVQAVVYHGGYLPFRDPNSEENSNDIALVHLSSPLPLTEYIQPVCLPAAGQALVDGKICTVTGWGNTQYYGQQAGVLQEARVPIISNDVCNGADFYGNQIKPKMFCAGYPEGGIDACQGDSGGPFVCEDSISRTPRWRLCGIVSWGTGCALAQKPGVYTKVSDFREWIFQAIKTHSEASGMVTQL
T1 sequence (P05981 1-162 partner limits assumed): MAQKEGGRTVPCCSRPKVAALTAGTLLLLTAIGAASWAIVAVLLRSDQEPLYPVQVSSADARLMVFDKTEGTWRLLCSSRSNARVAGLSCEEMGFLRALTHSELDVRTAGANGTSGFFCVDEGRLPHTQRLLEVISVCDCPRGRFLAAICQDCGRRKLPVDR

| Structure (SMILES) | IC50 (hepsin; 30 min incubation, Boc-QAR-AMC at Km, read-out: Hepsin IC50) [nM] | IC50 (HGFA) [nM] | IC50 (hepsin; read-out: Hepsin IC50) [nM] | IC50 (matriptase; read-out: Matriptase IC50) [nM] | IC50 (TMPRSS2; read-out: TMPRSS2 IC50) [nM] | IC50 (hepsin) [nM] | IC50 (matriptase) [nM] | IC50 (TMPRSS2) [nM] |
| --- | --- | --- | --- | --- | --- | --- | --- | --- |
| CC(=O)N[C@H]1Cc2ccc(cc2)OCCCC[C@@H](C(=O)N[C@@H](CCCNC(=N)N)C(=O)c2nc3ccccc3s2)NC(=O)[C@@H](Cc2c[nH]c3ccccc23)NC1=O [8b] | 0.54 | 3.3 | – | – | – | – | – | – |
| CC(=O)N[C@@H](Cc1cncn1COCc1ccccc1)C(=O)N[C@@H](CCC(C)C)C(=O)N[C@@H](CCCNC(=N)N)C(=O)c1nc2ccccc2s1 [JH1142-2, N-[(S)-1-[(1,3-benzothiazol-2-yl)carbonyl]-4-guanidinobutyl](S)-2-[(S)-2-acetylamino-3-{1-[(benzyloxy)methyl]-5-imidazolyl}propionylamino]-5-methylhexanamide] | – | 131 | 0.93 | 1.16 | – | – | – | – |
| N=C(N)NCCC[C@H](NC(=O)[C@H](Cc1cccc(Cl)c1)NC(=O)OCC1c2ccccc2-c2ccccc21)C(=O)c1nc2ccccc2s1 [MF1134, (S)-2-(m-chlorophenyl)-1-[N-(S)-1-[(1,3-benzothiazol-2-yl)carbonyl]-4-guanidinobutylcarbamoyl] ethyl (9H-fluoren-9-yl)methanecarbamate] | – | – | 1630 | > 20000 | 6.3 | – | – | – |
| C=CCOC(=O)CC[C@H](NC(=O)[C@H](CCC(C)C)NC(C)=O)C(=O)N[C@@H](Cc1ccc(F)cc1)C(=O)N[C@@H](CCCNC(=N)N)C(=O)c1nc2ccccc2s1 [MF1140, allyl (S)-4-[(S)-1-acetylamino-4-methylpentylcarbonylamino]-4-[N-(S)-2-(p-fluorophenyl)-1-[N-(S)-1-[(1,3-benzothiazol-2-yl)carbonyl]-4-guanidinobutylcarbamoyl]ethylcarbamoyl]butyrate] | – | – | – | – | – | 11 | 2.89 | 0.001 |
| N=C(N)NCCC[C@H](NC(=O)[C@H](Cc1cccc(F)c1)NC(=O)OCC1c2ccccc2-c2ccccc21)C(=O)c1nc2ccccc2s1 [MF1141, (S)-2-(m-fluorophenyl)-1-[N-(S)-1-[(1,3-benzothiazol-2-yl)carbonyl]-4-guanidinobutylcarbamoyl] ethyl (9H-fluoren-9-yl)methanecarbamate] | – | – | 346 | 1140 | 12.8 | – | – | – |
| N=C(N)NCCC[C@H](NC(=O)[C@H](CC1CCCCC1)NC(=O)OCC1c2ccccc2-c2ccccc21)C(=O)c1nc2ccccc2s1 [MF1142, (S)-2-cyclohexyl-1-[N-(S)-1-[(1,3-benzothiazol-2-yl)carbonyl]-4-guanidinobutylcarbamoyl] ethyl (9H-fluoren-9-yl)methanecarbamate] | – | – | 2390 | 2810 | 0.04 | – | – | – |
| N=C(N)NCCC[C@H](NC(=O)[C@H](Cc1cccc2ccccc12)NC(=O)OCC1c2ccccc2-c2ccccc21)C(=O)c1nc2ccccc2s1 [MF1144, (S)-2-(1-naphthyl)-1-[N-(S)-1-[(1,3-benzothiazol-2-yl)carbonyl]-4-guanidinobutylcarbamoyl] ethyl (9H-fluoren-9-yl)methanecarbamate] | – | – | 1410 | > 20000 | > 20000 | – | – | – |
| N=C(N)NCCC[C@H](NC(=O)[C@H](CCC1CCCCC1)NC(=O)OCC1c2ccccc2-c2ccccc21)C(=O)c1nc2ccccc2s1 [MF1149, (S)-3-cyclohexyl-1-[N-(S)-1-[(1,3-benzothiazol-2-yl)carbonyl]-4-guanidinobutylcarbamoyl] propyl (9H-fluoren-9-yl)methanecarbamate] | – | – | 2310 | 18 | > 20000 | – | – | – |
| CCC[C@H](NC(=O)OCC1c2ccccc2-c2ccccc21)C(=O)N[C@@H](CCCNC(=N)N)C(=O)c1nc2ccccc2s1 [MF1150, (S)-1-[N-(S)-1-[(1,3-benzothiazol-2-yl)carbonyl]-4-guanidinobutylcarbamoyl] butyl (9H-fluoren-9-yl)methanecarbamate] | – | – | 29.5 | 5.44 | 19.3 | – | – | – |
| N=C(N)NCCC[C@H](NC(=O)[C@H](CCc1ccccc1)NC(=O)OCC1c2ccccc2-c2ccccc21)C(=O)c1nc2ccccc2s1 [MF1152, (S)-1-[N-(S)-1-[(1,3-benzothiazol-2-yl)carbonyl]-4-guanidinobutylcarbamoyl]-3-phenylpropyl (9H-fluoren-9-yl)methanecarbamate] | – | – | > 20000 | 47.4 | 200 | – | – | – |
| N=C(N)NCCC[C@H](NC(=O)[C@H](Cc1cn(Cc2ccccc2)cn1)NC(=O)OCC1c2ccccc2-c2ccccc21)C(=O)c1nc2ccccc2s1 [MF1158, (S)-2-(1-benzyl-4-imidazolyl)-1-[N-(S)-1-[(1,3-benzothiazol-2-yl)carbonyl]-4-guanidinobutylcarbamoyl] ethyl (9H-fluoren-9-yl)methanecarbamate] | – | – | > 20000 | 39.9 | 68.7 | – | – | – |
| N=C(N)NCCC[C@H](NC(=O)[C@H](CCCCOCc1ccccc1)NC(=O)OCC1c2ccccc2-c2ccccc21)C(=O)c1nc2ccccc2s1 [MF1165, (S)-5-(benzyloxy)-1-[N-(S)-1-[(1,3-benzothiazol-2-yl)carbonyl]-4-guanidinobutylcarbamoyl] pentyl (9H-fluoren-9-yl)methanecarbamate] | – | – | 0.1 | 31.1 | 0.864 | – | – | – |
| N=C(N)NCCC[C@H](NC(=O)[C@H](Cc1csc2ccccc12)NC(=O)OCc1ccccc1)C(=O)c1nc2ccccc2s1 [MF1168, (S)-2-(1-benzothiophen-3-yl)-1-[N-(S)-1-[(1,3-benzothiazol-2-yl)carbonyl]-4-guanidinobutylcarbamoyl] ethyl-phenylmethanecarbamate] | – | – | > 20000 | > 20000 | 0.264 | – | – | – |
| N=C(N)NCCC[C@H](NC(=O)[C@H](CCC(=O)OCc1ccccc1)NC(=O)OCc1ccccc1)C(=O)c1nc2ccccc2s1 [MF1169, benzyl (S)-4-[benzyl(oxycarbonylamino)]-4-[N-(S)-1-[(1,3-benzothiazol-2-yl)carbonyl]-4-guanidinobutylcarbamoyl] butyrate] | – | – | > 20000 | 290 | 75 | – | – | – |
| N=C(N)NCCC[C@H](NC(=O)[C@@H](NC(=O)OCc1ccccc1)c1cccs1)C(=O)c1nc2ccccc2s1 [MF1177, (R)-[N-(S)-1-[(1,3-benzothiazol-2-yl)carbonyl]-4-guanidinobutylcarbamoyl] (2-thienyl)methyl-phenylmethanecarbamate] | – | – | 6.07 | 37.6 | 0.211 | – | – | – |
| N=C(N)NCCC[C@H](NC(=O)[C@H](Cc1cccs1)NC(=O)OCC1c2ccccc2-c2ccccc21)C(=O)c1nc2ccccc2s1 [MF1184, (S)-1-[N-(S)-1-[(1,3-benzothiazol-2-yl)carbonyl]-4-guanidinobutylcarbamoyl]-2-(2-thienyl)ethyl (9H-fluoren-9-yl)methanecarbamate] | – | – | 118 | 58.7 | 0.466 | – | – | – |
| CC(=O)N[C@@H](CO)C(=O)NCc1cccc(CC(=O)N[C@@H](CC(C)C)C(=O)N[C@H](CCCNC(=N)N)C(=O)c2nc3ccccc3s2)c1 [MM1132-1, N-[(R)-1-[(1,3-benzothiazol-2-yl)carbonyl]-4-guanidinobutyl](S)-2-{[(m-{[(S)-2-acetylamino-3-hydroxypropionylamino]methyl}phenyl)methyl]carbonylamino}-4-methylvaleramide] | – | 3250 | 1.91 | 419 | – | – | – | – |
| CCC(C)[C@H](NC(C)=O)C(=O)N[C@@H](CCSC)C(=O)N[C@@H](Cc1ccccc1)C(=O)N[C@H](CCCNC(=N)N)C(=O)c1nc2ccccc2s1 (stereo partly drawn) [MM4027-1, N-[(S)-3-(methylthio)-1-[N-(S)-1-[N-(R)-1-[(1,3-benzothiazol-2-yl)carbonyl]-4-guanidinobutylcarbamoyl]-2-phenylethylcarbamoyl]propyl](2S)-2-acetylamino-3-methylvaleramide] | – | 234 | – | – | 5.63 | – | – | – |
| CCC(C)[C@H](NC(C)=O)C(=O)N[C@@H](CCSC)C(=O)N[C@@H](Cc1ccccc1)C(=O)N[C@@H](CCCNC(=N)N)C(=O)c1nc2ccccc2s1 (stereo partly drawn) [MM4027-2, N-[(S)-3-(methylthio)-1-[N-(S)-1-[N-(S)-1-[(1,3-benzothiazol-2-yl)carbonyl]-4-guanidinobutylcarbamoyl]-2-phenylethylcarbamoyl]propyl](2S)-2-acetylamino-3-methylvaleramide] | – | – | 1.31 | – | 2.96 | – | 0.51 | – |
| CCC(C)[C@H](NC(C)=O)C(=O)N[C@H](Cc1cc2ccccc2[nH]1)C(=O)N[C@@H](Cc1ccccc1)C(=O)N[C@@H](CCCNC(=N)N)C(=O)c1nc2ccccc2s1 (stereo partly drawn) [MM4038, N-[(R)-2-(2-indolyl)-1-[N-(S)-1-[N-(S)-1-[(1,3-benzothiazol-2-yl)carbonyl]-4-guanidinobutylcarbamoyl]-2-phenylethylcarbamoy1]ethyl](2S)-2-acetylamino-3-methylvaleramide] | – | 66.2 | 12.2 | – | 0.04 | – | – | – |
| N=C(N)NCCC[C@H](NC(=O)[C@H](Cc1ccccc1)NC(=O)[C@H](CCC(N)=O)NC(=O)OCc1ccccc1)C(=O)c1nc2ccccc2s1 [ZFH9141] | – | – | 1.25 | 1.02 | 0.418 | – | – | – |
